How the values were obtained:
[1] = Quantum yield of free probe not reacted with protein tag; format: physicochemical
Procedure: (§1) A probe was mixed with a corresponding HaloTag protein tag to obtain a mixed sample. The final concentration of the probe in the mixed sample was 5 μM and the final concentration of the protein tag was 10 μM. The mixed sample was incubated at 37° C. for 1 hour, and the sample was detected using a fluorescence spectrophotometer.

[2] = Viscosity responsiveness: fluorescence intensity in glycerol versus methanol; format: physicochemical; settings: fluorescence intensity in glycerol to that in methanol
Procedure: The above-mentioned viscosity-responsive fluorescent dye means that the fluorescence intensity of the dye responds to the viscosity of the solution. As the viscosity of the solution increases, the fluorescence intensity increases. Optionally, the viscosity-responsive fluorescent dye is an organic dye molecule which, under the same concentration and excitation wavelength, at 25° C. has a ratio • of the maximum fluorescence emission intensity of the dye in glycerol to the fluorescence intensity in methanol of greater than 2, optionally greater than 5, optionally greater than 10. The concentration of the viscosity-responsive dye ranges from 1×10^−7 M to 1×10^−5 M.

HaloTag protein tag = experiment: Probe mixed with HaloTag protein tag, fluorescence spectrophotometer (Example 86); format: biochemical; settings: 5 μM probe, 10 μM protein tag, 37° C., 1 hour; for Fluorescence enhancement: fluorescence activation multiple after binding protein tag; for Emission/nm: fluorescence emission wavelength
Procedure: as §1

The quantum yield of the free probe [1] | ratio [2] | The quantum yield after binding to Halo-tag (HaloTag protein tag) | Emission/nm (HaloTag protein tag) | SMILES | Fluorescence enhancement (HaloTag protein tag)
<0.001 | 562 | 0.42 | 480 nm | CC(C)(C)OC(=O)/C(C#N)=C/c1ccc(N(CCO)CCOC(=O)NCCOCCOCCCCCCCl)cc1 [Probe 4] | 490
<0.001 | 480 | 0.57 | 645 nm | CN(CCOC(=O)NCCOCCOCCCCCCCl)c1cc2c(s1)-c1sc(/C=C(\C#N)C(=O)OC(C)(C)C)cc1C2(C)C [Probe 48] | 428
<0.001 | 1781 | 0.47 | 620 nm | CN(CCOC(=O)NCCOCCOCCCCCCCl)c1ccc(-c2ccc(/C=C(\C#N)C(=O)OC(C)(C)C)s2)cc1 [Probe 33] | 957
<0.001 | 276 | 0.48 | 580 nm | CN(C)c1ccc2cc(/C=C(\C#N)C(=O)NCCCCCCCl)sc2c1 [Probe 67] | 576
<0.001 | 655 | 0.42 | 550 nm | CN(CCOC(=O)NCCOCCOCCCCCCCl)c1cc2sc(/C=C(\C#N)C(=O)OC(C)(C)C)cc2s1 [Probe 10] | 431
0.0018 | 320 | 0.47 | 535 nm | CN(CCOC(=O)NCCOCCOCCCCCCCl)c1ccc(C2=C(C#N)C(=C(C#N)C#N)OC2(C)C)cc1 [Probe 8] | 296
0.0013 | 422 | 0.46 | 590 nm | CN(CCOC(=O)NCCOCCOCCCCCCCl)c1cc2sc(/C=C(\C#N)c3nc4ccccc4o3)cc2s1 [Probe 11] | 520
<0.001 | 359 | 0.48 | 625 nm | CN(CCOC(=O)NCCOCCOCCCCCCCl)c1ccc2c(c1)C(C)(C)c1cc(/C=C(/C#N)C(=O)OC(C)(C)C)ccc1-2 [Probe 51] | 392
<0.001 | 998 | 0.53 | 640 nm | CN(CCOC(=O)NCCOCCOCCCCCCCl)c1cc2sc3cc(/C=C(\C#N)C(=O)OC(C)(C)C)sc3c2s1 [Probe 29] | 621
<0.001 | 386 | 0.53 | 550 nm | CNc1ccc2cc(/C=C(\C#N)C(=O)NCCOCCOCCCCCCCl)sc2c1 [Probe 66] | 512
<0.001 | 1183 | 0.40 | 530 nm | CN1C(=O)/C(=C/c2ccc(N(C)CCOC(=O)NCCOCCOCCCCCCCl)cc2)N=C1c1ccccc1 [Probe 6] | 989
<0.001 | 270 | 0.47 | 670 nm | COCCNC(=S)/C(C#N)=C/c1cc2c(s1)-c1sc(N(C)CCOC(=O)NCCOCCOCCCCCCCl)cc1C2(C)C [Probe 52] | 435
<0.001 | 521 | 0.40 | 743 nm | CN(C)c1ccc(-c2ccc(/C=C3\SC(=O)N(CCOCCOCCCCCCCl)C3=O)s2)s1 [Probe 81] | 563
<0.001 | 1459 | 0.63 | 521 nm | CC(C)(C)OC(=O)/C(C#N)=C/c1ccc2c(c1)SCCN2CCOC(=O)NCCOCCOCCCCCCCl [Probe 44] | 1586
<0.001 | 1621 | 0.51 | 620 nm | CN(CCOC(=O)NCCOCCOCCCCCCCl)c1ccc2nc(/C=C(\C#N)C(=O)O)sc2c1 [Probe 25] | 670
<0.001 | 522 | 0.47 | 680 nm | CN(C)c1ccc(-c2ccc(/C=C(\C#N)C(=S)NCCOCCOCCCCCCCl)s2)s1 [Probe 84] | 431
0.001 | 759 | 0.47 | 657 nm | CN(CCOC(=O)NCCOCCOCCCCCCCl)c1ccc(-c2ccc(/C=C(\C#N)C(=O)OC(C)(C)C)s2)s1 [Probe 40] | 421
<0.001 | 498 | 0.51 | 725 nm | CN(C)c1cc2c(s1)-c1sc(/C=C3\SC(=S)N(CCOCCOCCCCCCCl)C3=O)cc1C2(C)C [Probe 79] | 419
<0.001 | 402 | 0.56 | 575 nm | CC1=N/C(=C\c2cc3ccc(N(C)CCOC(=O)NCCOCCOCCCCCCCl)cc3s2)C(=O)N1C [Probe 17] | 498
<0.001 | 1123 | 0.56 | 590 nm | CN(CCOC(=O)NCCOCCOCCCCCCCl)c1ccc2nc(/C=C(\C#N)C(=O)OC(C)(C)C)ccc2c1 [Probe 26] | 910
<0.001 | 560 | 0.52 | 480 nm | CN(CCOC(=O)NCCOCCOCCCCCCCl)c1ccc(/C=C(\C#N)C(=O)OC(C)(C)C)cc1 [Probe 1] | 500
0.0012 | 972 | 0.45 | 618 nm | CN(CCOC(=O)NCCOCCOCCCCCCCl)c1ccc(-c2ccc(/C=C(\C#N)C(=O)O)s2)cc1 [Probe 35] | 433
<0.001 | 997 | 0.46 | 609 nm | CN(CCOC(=O)NCCOCCOCCCCCCCl)c1ccc2c(c1)sc1cc(/C=C(\C#N)C(=O)OC(C)(C)C)sc12 [Probe 32] | 638
0.0012 | 470 | 0.52 | 550 nm | CN(C)c1ccc2c(c1)C(C)(C)c1cc(/C=C(\C#N)C(=O)NCCOCCOCCCCCCCl)sc1-2 [Probe 86] | 618
<0.001 | 320 | 0.53 | 570 nm | CC(C)(C)OC(=O)/C(C#N)=C/c1cc2ccc(N(CCO)CCOC(=O)NCCOCCOCCCCCCCl)cc2s1 [Probe 15] | 379
<0.001 | 334 | 0.54 | 680 nm | CN(CCOC(=O)NCCOCCOCCCCCCCl)c1cc2c(s1)-c1sc(/C=C(\C#N)c3nc4ccccc4o3)cc1C2(C)C [Probe 49] | 541
0.0013 | 178 | 0.39 | 702 nm | CN(CCOC(=O)NCCOCCOCCCCCCCl)c1ccc(-c2ccc(/C=C(\C#N)c3nc4ccccc4o3)s2)s1 [Probe 42] | 375

SMILES | The quantum yield of the free probe [1] | ratio [2] | The quantum yield after binding to Halo-tag (HaloTag protein tag) | Emission/nm (HaloTag protein tag) | Fluorescence enhancement (HaloTag protein tag)
CC(C)(C)OC(=O)/C(C#N)=C/c1ccc(N(CCOC(=O)NCCCS(=O)(=O)[O-])CCOC(=O)NCCOCCOCCCCCCCl)cc1.[Na+] [Probe5] | <0.001 | 790 | 0.46 | 480 nm | 1174
CN(C)c1cc2c(s1)-c1sc(/C=C(\C#N)C(=S)NCCOCCOCCCCCCCl)cc1[Si]2(C)C [Probe 83] | <0.001 | 652 | 0.53 | 680 nm | 456
CN(CCOC(=O)NCCOCCOCCCCCCCl)c1cc2c(s1)-c1sc(/C=C(\C#N)c3nc4ccccc4s3)cc1[Si]2(C)C [Probe 39] | 0.0016 | 892 | 0.38 | 700 nm | 335
CN(CCOC(=O)NCCOCCOCCCCCCCl)c1cc2c(s1)-c1sc(C=C(C#N)C#N)cc1[Si]2(C)C [Probe 37] | 0.0012 | 1135 | 0.56 | 655 nm | 469

From patent US12492337B2, “Fluorescent probe, preparation method therefor and use thereof” (FLUORESCENCE DIAGNOSIS (SHANGHAI) BIOTECH COMPANY, priority 2017, dated 2025)
